From US20240287046A1, “COMPOUNDS AND RADIOLIGANDS FOR TARGETING NEUROTENSIN RECEPTOR AND USES THEREOF” (Full-Life Technologies HK Limited, priority 2022, published 2024)

Tested on: ASPC-1 tumor
Experiment: In vivo efficacy of ^225Ac therapy
Settings: ASPC-1 tumor-bearing mice
Method: In vivo efficacy of the ^177Lu labeled complexes and ^225Ac labeled complexes of the present application was evaluated in ASPC-1 tumor-bearing mice. For ^177Lu therapy study, animals in each group were dosed with vehicle or 0.6 mCi activity of the radiolabeled complexes at Day 1 and Day 5, respectively. For ^225Ac therapy studies, animals in each group were administered with a single dose of vehicle, 18, 37 or 74 KBq activity of the radiolabeled complexes, respectively.
The tumor volume (V) was determined according to the equation (V=[…]×L×W×H) at different time points, where L is the longest axis and W is the perpendicular axis to L, and H is the perpendicular axis to L and W plane. Endpoint (sacrifice) criteria were defined as either when the tumor volume exceeded 1.5 cm^3, or 20% body weight loss.

For `COc1cccc(OC)c1-c1cc(C(=O)NC2(C(=O)O)C3CC4CC(C3)CC2C4)nn1-c1ccc(NC(=O)CCCN(C)CCCN(C)C(=O)CN2CCN(CC(=O)[O-])CCN(CC(=O)[O-])CCN(CC(=O)[O-])CC2)cc1C(C)C.[225Ac+3]` (centres unmarked) [^225Ac—I-5], the “tumor inhibition compared to the vehicle group” value (single dose of 18, 37 or 74 KBq) was “significant tumor inhibition” and the “dose sufficient to achieve the maximal effect” value (single dose) was 37 KBq.
